ChEMBL document CHEMBL4334494, “Recent advances in the targeting of human DNA ligase I as a potential new strategy for cancer treatment” (Eur J Med Chem, 2019)
Values belong to the compound of their own block, whether it stands above or below them.

Legend:
DNA ligase 1 [1] = molecular target: T1, DNA ligase 1 (Homo sapiens, UniProt P18858); assay: Inhibition of human DNA ligase 1 using 52-mer DNA/25-mer DNA/27-mer DNA as substrate by fluorescence assay
DNA ligase 1 [2] = molecular target: T1, DNA ligase 1; assay: Inhibition of human DNA ligase 1 expressed in Escherichia coli BL21 (DE3) cells using nicked DNA as substrate preincubated for 30 mins followed by substrate addition measured after 1 hr
DLD-1 = assay: Antiproliferative activity against human DLD1 cells after 48 hrs by MTT assay; type: functional, cell-based; details: DLD-1, 48 h
HeLa = assay: Antiproliferative activity against human HeLa cells after 48 hrs by MTT assay; type: functional, cell-based
4T1 = assay: Antiproliferative activity against mouse 4T1 cells after 48 hrs by MTT assay; type: functional, cell-based; details: 4T1, 48 h
DNA ligase 1 [3] = molecular target: T1, DNA ligase 1; assay: Inhibition of human DNA ligase 1 expressed in Escherichia coli BL21DE3RP cells at 50 uM using 52-mer DNA/25-mer DNA/27-mer DNA as substrate after 30 mins by Cyanin3 dye-based fluorescence assay relative to control
HepG2 = assay: Antiproliferative activity against human HepG2 cells after 48 hrs by MTT assay; type: functional, cell-based; details: HepG2, 48 h
HCT-116 [4] = assay: Antiproliferative activity against human HCT116 cells after 48 hrs by MTT assay; type: functional, cell-based; details: HCT-116, 48 h
HT-29 = assay: Antiproliferative activity against human HT-29 cells after 48 hrs by MTT assay; type: functional, cell-based; details: HT-29, 48 h
MDA-MB-231 [5] = assay: Antiproliferative activity against human MDA-MB-231 cells after 48 hrs by MTT assay; type: functional, cell-based; details: MDA-MB-231, 48 h
MDA-MB-231 [6] = assay: Antiproliferative activity against human MDA-MB-231 cells at 10 uM after 48 hrs by MTT assay relative to control; type: functional; details: MDA-MB-231, 48 h
DNA ligase 1 [7] = molecular target: T1, DNA ligase 1; assay: Inhibition of human DNA ligase 1 at 25 uM using nicked DNA as substrate after 30 mins relative to control
DNA ligase 1 [8] = molecular target: T1, DNA ligase 1; assay: Inhibition of human DNA ligase 1 at 50 uM using 52-mer DNA/25-mer DNA/27-mer DNA as substrate by fluorescence assay relative to control
HCT-116 [9] = assay: Antiproliferative activity against human HCT116 cells relative to control; type: functional

T1 sequence (P18858 whole entry): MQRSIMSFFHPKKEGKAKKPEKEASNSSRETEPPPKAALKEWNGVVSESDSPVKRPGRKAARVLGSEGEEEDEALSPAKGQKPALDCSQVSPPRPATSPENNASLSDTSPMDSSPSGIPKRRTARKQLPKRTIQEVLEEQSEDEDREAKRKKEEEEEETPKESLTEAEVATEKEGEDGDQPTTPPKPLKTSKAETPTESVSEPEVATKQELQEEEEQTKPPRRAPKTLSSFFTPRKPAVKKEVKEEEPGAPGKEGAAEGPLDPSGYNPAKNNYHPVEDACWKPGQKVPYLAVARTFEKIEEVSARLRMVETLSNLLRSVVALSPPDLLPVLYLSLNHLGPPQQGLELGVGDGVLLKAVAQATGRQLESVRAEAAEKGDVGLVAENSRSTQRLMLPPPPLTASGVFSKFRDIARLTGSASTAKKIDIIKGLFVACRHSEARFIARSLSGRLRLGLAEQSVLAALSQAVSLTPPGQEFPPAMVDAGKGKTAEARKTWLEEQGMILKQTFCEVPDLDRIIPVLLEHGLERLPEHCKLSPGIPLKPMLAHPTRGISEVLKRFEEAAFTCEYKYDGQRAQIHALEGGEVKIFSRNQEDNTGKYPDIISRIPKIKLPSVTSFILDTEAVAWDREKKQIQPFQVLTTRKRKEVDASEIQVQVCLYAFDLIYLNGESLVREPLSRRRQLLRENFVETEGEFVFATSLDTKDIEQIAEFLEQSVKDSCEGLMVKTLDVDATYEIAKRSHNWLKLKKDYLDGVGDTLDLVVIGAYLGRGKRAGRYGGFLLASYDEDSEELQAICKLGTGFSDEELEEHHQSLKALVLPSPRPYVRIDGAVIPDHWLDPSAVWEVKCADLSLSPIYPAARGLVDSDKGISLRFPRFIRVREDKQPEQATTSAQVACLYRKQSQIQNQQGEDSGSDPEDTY

IC50 (DNA ligase 1 [1]): 186 µM
SMILES: CC1(C)CC[C@]2(C(=O)O)CC[C@]3(C)C(=CC[C@@H]4[C@@]5(C)CC[C@H](O)C(C)(C)[C@@H]5CC[C@]43C)[C@@H]2C1 [OLEANOLIC_ACID]

IC50 (DNA ligase 1 [1]): 225 µM
SMILES: O=c1c(O)c(-c2ccc(O)cc2O)oc2cc(O)cc(O)c12 [MORIN]

IC50 (DNA ligase 1 [1]): 263 µM
SMILES: C[C@H]1[C@H](C)CC[C@]2(C(=O)O)CC[C@]3(C)C(=CC[C@@H]4[C@@]5(C)CC[C@H](O)C(C)(C)[C@@H]5CC[C@]43C)[C@H]12 [URSOLIC ACID]

IC50 (DNA ligase 1 [2]): 26.5 µM
SMILES: O=C1/C(=N\Nc2cn[nH]c(=O)c2Cl)c2ccccc2N1c1ccc(Cl)cc1

IC50 (DNA ligase 1 [2]): 21.1 µM
SMILES: O=C1/C(=N\Nc2cn[nH]c(=O)c2Cl)c2cc(Cl)ccc2N1c1ccc(F)cc1

IC50 (DLD-1): < 10 µM | IC50 (HeLa): < 10 µM | IC50 (4T1): < 10 µM | inhibition (DNA ligase 1 [3]): > 75% | IC50 (HepG2): < 10 µM | IC50 (HCT-116 [4]): < 10 µM | IC50 (HT-29): < 10 µM | IC50 (MDA-MB-231 [5]): < 10 µM
SMILES: O=C1/C(=C/c2ccc(F)cc2)CN(C(=S)NC(=O)c2ccccc2)C/C1=C\c1ccc(F)cc1

inhibition (DNA ligase 1 [7]): < 50%
SMILES: COc1cccc(OC)c1/C=C/c1cc(=O)oc2c1ccc1ccccc12
inhibition at 10 µM (MDA-MB-231 [6]): > 50%

IC50 (DLD-1): < 10 µM | IC50 (HeLa): < 10 µM | IC50 (4T1): < 10 µM | inhibition (DNA ligase 1 [3]): > 75% | IC50 (HepG2): < 10 µM | IC50 (HCT-116 [4]): < 10 µM | IC50 (HT-29): < 10 µM | IC50 (MDA-MB-231 [5]): < 10 µM
SMILES: Cc1ccccc1/C=C1\CN(C(=S)NC(=O)c2ccccc2)C/C(=C\c2ccccc2C)C1=O

IC50 (DNA ligase 1 [1]): 18.5 µM
SMILES: C=C1C(=O)OC(CCCCCCCCCCCCC)C1C(=O)O (stereo not drawn) [(+/-)-Protolichesterinic acid]

IC50 (DLD-1): < 10 µM | IC50 (HeLa): < 10 µM | IC50 (4T1): < 10 µM | inhibition (DNA ligase 1 [3]): > 75% | IC50 (HepG2): < 10 µM | IC50 (HCT-116 [4]): < 10 µM | IC50 (HT-29): < 10 µM | IC50 (MDA-MB-231 [5]): < 10 µM
SMILES: Cc1ccc(/C=C2\CN(C(=S)NCCc3ccccc3)C/C(=C\c3ccc(C)cc3)C2=O)cc1

IC50 (DLD-1): < 10 µM | IC50 (HeLa): < 10 µM | IC50 (4T1): < 10 µM | inhibition (DNA ligase 1 [3]): > 75% | IC50 (HepG2): < 10 µM | IC50 (HCT-116 [4]): < 10 µM | IC50 (HT-29): < 10 µM | IC50 (MDA-MB-231 [5]): < 10 µM
SMILES: CCCCNC(=S)N1C/C(=C\c2ccccc2C)C(=O)/C(=C/c2ccccc2C)C1

IC50 (DNA ligase 1 [1]): 356 µM
SMILES: C/C=C/C=C1\C=Cc2c(C(=O)OC)coc(=O)c21 [FULVOPLUMIERIN]

inhibition (DNA ligase 1 [8]): 75.9%
SMILES: COc1cc([N+](=O)[O-])ccc1NC(=S)NCC12C=CC(O1)C1C(=O)N(c3c(Cl)cccc3Cl)C(=O)C12 (stereo not given)

inhibition (DNA ligase 1 [8]): 42.4%
SMILES: CC(=O)c1ccc(NC(=O)Nc2ccc3nc(C)cc(NC(=O)c4ccco4)c3c2)cc1

IC50 (DLD-1): < 10 µM | IC50 (HeLa): < 10 µM | IC50 (4T1): < 10 µM | inhibition (DNA ligase 1 [3]): > 75% | IC50 (HepG2): < 10 µM | IC50 (HCT-116 [4]): < 10 µM | IC50 (HT-29): < 10 µM | IC50 (MDA-MB-231 [5]): < 10 µM
SMILES: Cc1ccc(/C=C2\CN(C(=S)NC(=O)c3ccccc3)C/C(=C\c3ccc(C)cc3)C2=O)cc1

inhibition (DNA ligase 1 [8]): 10.8%
SMILES: COC(=O)N1CCN(CC(=O)Nc2cc(C)nc3ccc(NC(=O)Nc4ccc(Br)cc4)cc23)CC1

inhibition (DNA ligase 1 [8]): 1.5%
SMILES: CCOC(=O)N1CCN(CC(=O)Nc2cc(C)nc3ccc(NC(=O)Nc4ccc(Cl)cc4)cc23)CC1

inhibition (DNA ligase 1 [8]): 65%
SMILES: COc1ccc(N2C(=O)C3C4C=CC(CNC(=S)Nc5ccc(OC)cc5[N+](=O)[O-])(O4)C3C2=O)cc1 (stereo not given)

IC50 (DNA ligase 1 [2]): 14.1 µM
SMILES: Cc1ccc(N2C(=O)/C(=N\Nc3cn[nH]c(=O)c3Cl)c3ccccc32)cc1

IC50 (DNA ligase 1 [1]): 208 µM
SMILES: CC1(C)CC[C@]2(C(=O)O)CC=C3[C@]4(C)CC[C@H]5C(C)(C)[C@@H](O)CC[C@]5(C)[C@H]4CC[C@@]3(C)[C@@H]2C1 [ALEURITOLIC ACID]

IC50 (DNA ligase 1 [1]): 322 µM
SMILES: C[n+]1cc2c3c(ccc2c2ccc4cc5c(cc4c21)OCO5)OCO3 [SANGUINARINE NITRATE]

IC50 (DNA ligase 1 [1]): 65.1 µM
SMILES: COc1cc2c[n+](C)c3c4cc5c(cc4ccc3c2cc1OC)OCO5 [NITIDINE CHLORIDE]

IC50 (DNA ligase 1 [2]): 14.1 µM
SMILES: O=C1/C(=N\Nc2cn[nH]c(=O)c2Cl)c2cc(Cl)ccc2N1c1ccc(Cl)cc1

IC50 (DLD-1): < 10 µM | IC50 (HeLa): < 10 µM | IC50 (4T1): < 10 µM | inhibition (DNA ligase 1 [3]): > 75% | IC50 (HepG2): < 10 µM | IC50 (HCT-116 [4]): < 10 µM | IC50 (HT-29): < 10 µM | IC50 (MDA-MB-231 [5]): < 10 µM
SMILES: CCCCNC(=S)N1C/C(=C\c2ccccc2F)C(=O)/C(=C/c2ccccc2F)C1

IC50 (DLD-1): < 10 µM | IC50 (HeLa): < 10 µM | IC50 (4T1): < 10 µM | inhibition (DNA ligase 1 [3]): > 75% | IC50 (HepG2): < 10 µM | IC50 (HCT-116 [4]): < 10 µM | IC50 (HT-29): < 10 µM | IC50 (MDA-MB-231 [5]): < 10 µM
SMILES: O=C1/C(=C/c2ccc(F)cc2)CN(C(=S)NCCc2ccccc2)C/C1=C\c1ccc(F)cc1

SMILES: COc1cc2c(ccc3c4cc(OC)c(OC)cc4c[n+](C)c23)cc1O [FAGARONINE]
IC50 (DNA ligase 1 [1]): 25.9 µM

inhibition (DNA ligase 1 [8]): 56.2%
SMILES: COc1ccc(NC(=S)NCC23C=CC(O2)C2C(=O)N(c4ccccc4)C(=O)C23)c([N+](=O)[O-])c1 (stereo not given)

inhibition (DNA ligase 1 [8]): 61.1%
SMILES: Cc1cc(NC(=O)CN2CCN(C(=O)OC(C)(C)C)CC2)c2cc(NC(=O)Nc3ccc(C)c(Cl)c3)ccc2n1

SMILES: O=C1/C(=N\Nc2cn[nH]c(=O)c2Cl)c2cc(Br)ccc2N1c1ccc(Cl)cc1
IC50 (DNA ligase 1 [2]): 15.5 to 18.8 µM

IC50 (DNA ligase 1 [2]): 36.4 µM
SMILES: O=C1/C(=N\Nc2cn[nH]c(=O)c2Cl)c2cc(Br)ccc2N1c1ccccc1

SMILES: COc1ccc(-c2cnc3c(O)nc(O)nc3n2)cc1
Activity (HCT-116 [9]): 70%

SMILES: O=c1c(O)c(-c2cc(O)c(O)c(O)c2)oc2cc(O)cc(O)c12 [MYRICETIN]
IC50 (DNA ligase 1 [1]): 88 µM

inhibition (DNA ligase 1 [8]): 98.2%
SMILES: COc1cc([N+](=O)[O-])ccc1NC(=S)NCC12C=CC(O1)C1C(=O)N(c3ccc(C)cc3)C(=O)C12 (stereo not given)

inhibition (DNA ligase 1 [7]): < 50%
SMILES: COc1cc(/C=C/c2cc(=O)oc3c2ccc2c(OC)cccc23)cc(OC)c1
inhibition at 10 µM (MDA-MB-231 [6]): > 50%

IC50 (DNA ligase 1 [2]): 13.9 µM
SMILES: O=C1Nc2ccccc2/C1=N/Nc1cn[nH]c(=O)c1Cl

IC50 (DNA ligase 1 [2]): 14.1 µM
SMILES: O=C1Nc2ccc(Cl)cc2/C1=N/Nc1cn[nH]c(=O)c1Cl

IC50 (DLD-1): < 10 µM | IC50 (HeLa): < 10 µM | IC50 (4T1): < 10 µM | inhibition (DNA ligase 1 [3]): > 75% | IC50 (HepG2): < 10 µM | IC50 (HCT-116 [4]): < 10 µM | IC50 (HT-29): < 10 µM | IC50 (MDA-MB-231 [5]): < 10 µM
SMILES: CCCCNC(=S)N1C/C(=C\c2ccc(C)cc2)C(=O)/C(=C/c2ccc(C)cc2)C1
